# Earlier results, collected in patent US9428497B2, “Precursor compounds for the radiosynthesis of [18F] norchloro-fluorohomoepibatidine” (priority 2011, dated 2016).
# Like-named read-outs stand apart in the source and are kept apart here.
# Tests used:
# [1] = mice; compared with 2-[18F]F-A-85380
# [2] = piglets; compared with 2-[18F]F-A-85380
structure (smiles),measurement,setting,value
"[18F]c1ccc(C2CC3CCCC2N3)cn1 (single isomer, unassigned; (-)) [(−)-[^18F]NCFHEB, (−)-[^18F]norchloro-fluoro-homoepibatidine]",cerebral uptake relative to 2-[18F]F-A-85380,[1],more than two times higher
same,cerebral uptake relative to 2-[18F]F-A-85380,[2],more than two times higher
